Assay results from publication PMC4723341, “Ribonuclease H/DNA Polymerase HIV-1 Reverse Transcriptase Dual Inhibitor: Mechanistic Studies on the Allosteric Mode of Action of Isatin-Based Compound RMNC6” (PLoS ONE, 2016).
Values joined by “and” are separate entries in the source; they are usually repeats but may differ in a detail not shown here. Identical values can stand only once.

Tests used:
[1] = molecular target: T1, HIV-1 RT-associated RNase H activity, wt RT (Human immunodeficiency virus type 1 group M subtype B, UniProt P04585); assay: biochemical; parameters: species or system HIV-1 group M subtype B
T1 construct: The 1:1 ration between the p66/p51 subunits was also verified; made in house; host or cells: E. coli M15
Procedure: (§1) HIV RT-associated RNase H activity was measured as described in 100 μL reaction volume containing 50 mM Tris-HCl buffer pH 7.8, 6 mM MgCl2, 1 mM dithiothreitol (DTT), 80 mM KCl, 0.25 μM hybrid RNA/DNA 5'-GAUCUGAGCCUGGGAGCU-Fluorescin-3' (HPLC, dry, QC: Mass Check) (available from Metabion) 5'-Dabcyl-AGCTCCCAGGCTCAGATC-3'(HPLC, dry, QC: Mass Check), increasing concentrations of inhibitors, whose dilution were made in water, and different amount of enzymes according to a linear range of dose-response curve: 20 ng of WT RT; 60 ng K103N RT; 37.5 ng V106A RT; 75 ng V108A RT; 5 ng Y181C RT; 50 ng Y188A RT; 30 ng Y188L RT; 100 ng E224A RT; 37.5 ng P225A RT; 20 ng P226A RT; 18 ng F227A RT; 30 ng L228A RT; 30 ng W229A RT; 10 ng M230A RT; 30 ng G231A RT; 62.5 ng N474A RT; 1 μg Y501A RT; 100 ng A502F RT; 37.5 ng A508V RT; 38 ng HIV-1 group O RT. The reaction mixture was incubated for 1 h at 37°C, stopped by addition of EDTA and products were measured with a multilabel counter plate reader Victor 3 (Perkin Elmer model 1420–051) equipped with filters for 490/528 nm (excitation/emission wavelength)

[2] = molecular target: HIV-1 RT-associated RNase H activity, HIV-1 group O RT (Human immunodeficiency virus type 1 group O, UniProt Q79666); assay: RNase H activity assay, HIV-1 group O RT; type: biochemical; conditions: for IC50: Group O RT; for Fold increase in RNase H IC50 in comparison with wild-type HIV-1 group M subtype B RT: HIV-1 group O RT
Description: Recombinant HIV-1 group O RT was expressed and purified as previously described. It was obtained as a heterodimer composed of subunits of 66 and 51 kDa, with a polyhistidine tag at the C-terminus of p66. For this purpose, the RT p66 subunit encoded within a p66RTB expression vector was co-expressed with the HIV-1 protease in E. coli XL-1 Blue, and the obtained heterodimers were then purified by ionic exchange followed by chromatography on Ni2+-nitriloacetic acid agarose. The enzyme was quantified by active site titration before biochemical studies.
as §1, with “5'-[…]-Fluorescin-3'” for “5'-GAUCUGAGCCUGGGAGCU-Fluorescin-3'”, “5'-Dabcyl-[…]-3'(HPLC,” for “5'-Dabcyl-AGCTCCCAGGCTCAGATC-3'(HPLC,”

[3] = molecular target: T2, HIV-1 RT-associated RNase H activity, Y188A RT (Human immunodeficiency virus type 1 group M subtype B, UniProt P04585, Y775A); assay: RNase H activity assay, Y188A RT; type: biochemical, HIV-1 group M subtype B; conditions: for Fold of increase of RNase H IC50 with respect to wt RT: Y188A RT
T2 construct: The 1:1 ration between the p66/p51 subunits was also verified; made in house; host or cells: E. coli M15
Procedure: as §1

[4] = molecular target: T3, HIV-1 RT-associated RNase H activity, P226A RT (Human immunodeficiency virus type 1 group M subtype B, UniProt P04585, P813A); assay: RNase H activity assay, P226A RT; type: biochemical, HIV-1 group M subtype B
T3 construct: The 1:1 ration between the p66/p51 subunits was also verified; made in house; host or cells: E. coli M15
Procedure: as §1

[5] = test system: HIV-1 RT-associated RNase H activity, P226A RT; assay: RNase H activity assay, P226A RT; type: biochemical, HIV-1 group M subtype B; conditions: P226A RT
Procedure: as §1

[6] = molecular target: T4, HIV-1 RT-associated RNase H activity, L228A RT (Human immunodeficiency virus type 1 group M subtype B, UniProt P04585, L815A); assay: RNase H activity assay, L228A RT; type: biochemical, HIV-1 group M subtype B; conditions: for Fold of increase of RNase H IC50 with respect to wt RT: L228A RT
T4 construct: The 1:1 ration between the p66/p51 subunits was also verified; made in house; host or cells: E. coli M15
Procedure: as §1

[7] = molecular target: T5, HIV-1 RT-associated RNase H activity, W229A RT (Human immunodeficiency virus type 1 group M subtype B, UniProt P04585, W816A); assay: RNase H activity assay, W229A RT; type: biochemical, HIV-1 group M subtype B; conditions: for Fold of increase of RNase H IC50 with respect to wt RT: W229A RT
T5 construct: The 1:1 ration between the p66/p51 subunits was also verified; made in house; host or cells: E. coli M15
Procedure: as §1

[8] = molecular target: T6, HIV-1 RT-associated RNase H activity, M230A RT (Human immunodeficiency virus type 1 group M subtype B, UniProt P04585, M817A); assay: RNase H activity assay, M230A RT; type: biochemical, HIV-1 group M subtype B
T6 construct: The 1:1 ration between the p66/p51 subunits was also verified; made in house; host or cells: E. coli M15
Procedure: as §1

[9] = test system: HIV-1 RT-associated RNase H activity, M230A RT; assay: RNase H activity assay, M230A RT; type: biochemical, HIV-1 group M subtype B; conditions: M230A RT
Procedure: as §1

[10] = molecular target: T7, HIV-1 RT-associated RNase H activity, A508V RT (Human immunodeficiency virus type 1 group M subtype B, UniProt P04585, A1095V); assay: RNase H activity assay, A508V RT; type: biochemical, HIV-1 group M subtype B; conditions: for Fold of increase of RNase H IC50 with respect to wt RT: A508V RT
T7 construct: The 1:1 ration between the p66/p51 subunits was also verified; made in house; host or cells: E. coli M15
Procedure: as §1

p66/p51 HIV-1 RT = molecular target: T8, p66/p51 HIV-1 RT (Human immunodeficiency virus type 1 group M subtype B, UniProt P04585); assay: Thermal stability by differential scanning fluorimetry; type: binding; conditions: increasing concentrations of inhibitor
T8 construct: The 1:1 ration between the p66/p51 subunits was also verified; made in house; host or cells: E. coli M15
Procedure: Thermal stability assays were performed according to Nettleship et al.. […] The mixture was heated from 30 to 90°C in increments of 0.2°C. Fluorescence intensity was measured using excitation and emission wavelengths of 483 and 568 nm, respectively. Changes in protein thermal stability (ΔTm) upon inhibitor binding were analyzed by using the LightCycler 480 software. All assays were performed in triplicate.

| Compound | IC50 [1] [µM] | IC50 [2] [µM] | Fold increase in RNase H IC50 in comparison with wild-type HIV-1 group M subtype B RT [2] | IC50 [3] [µM] | Fold of increase of RNase H IC50 with respect to wt RT [3] | IC50 [4] [µM] | Fold of increase of RNase H IC50 with respect to wt RT [5] | IC50 [6] [µM] | Fold of increase of RNase H IC50 with respect to wt RT [6] | IC50 [7] [µM] | Fold of increase of RNase H IC50 with respect to wt RT [7] | IC50 [8] [µM] | Fold of increase of RNase H IC50 with respect to wt RT [9] | IC50 [10] [µM] | Fold of increase of RNase H IC50 with respect to wt RT [10] | Tm increase of HIV-1 RT (p66/p51 HIV-1 RT; in the presence of Mg2+) [°C] | Effect on RT thermal stability (p66/p51 HIV-1 RT) |
| --- | --- | --- | --- | --- | --- | --- | --- | --- | --- | --- | --- | --- | --- | --- | --- | --- | --- |
| CC(C)c1ccc(O)c(=O)c(O)c1 [BTP, β-thujaplicinol, reference compound] | 0.19 ± 0.03 | 0.91 ± 0.01 | 5 to 6.5 | 0.19 ± 0.08 | 1.0 | 0.29 ± 0.08 | 1.5 | 0.1 ± 0.06 | 0.5 | 0.15 ± 0.08 | 0.8 | 0.14 ± 0.04 | 0.7 | 0.16 ± 0.05 | 0.8 | < 2.0 |  |
| N#Cc1ccc(-c2csc(NN=C3C(=O)Nc4ccccc43)n2)cc1 [RMNC6, (Z)-4-(2-(2-(2-oxoindolin-3-ylidene)hydrazinyl)thiazol-4-yl)benzonitrile] | 1.3 ± 0.3 | 8.5 ± 2.6 | 6.5 and 5 to 6.5 | 3.3 ± 1.5 | 2.5 | 1.9 ± 0.1 | 1.5 | 1.5 ± 0.1 | 1.1 | 1.9 ± 0.5 | 1.5 | 0.5 ± 0.1 | 0.4 | 6.5 ± 0.7 | 5.0 |  | did not affect significantly |
